Bounds are passed on as bounds.

The data set in a line: In vitro release of curcumin by dialysis in 0.1% Tween 20 at 37° C. Type of data set: physicochemical. Conditions: within 24 hours; free curcumin 2 mg/mL in 2-propanol. The protocol: The in vitro release profiles of the drug-loaded NPs were assessed in 0.1% Tween 20 at 37° C. based on a dialysis method reported earlier with modifications. Briefly, 1 mL of the NPs was added into a dialysis tube (Float-A-lyzer G2 with a membrane MWCO 3.5-5 kD, Spectrum Laboratories, Inc., Rancho Dominguez, Calif., USA), which was subsequently placed in 250 mL of 0.1% Tween 20 at 37° C. Dialysate was replaced periodically. Samples (10 μL) were withdrawn from the dialysis tube at designated time points. The samples collected were analyzed using a UPLC-UV method and GraphPad Prism 5 was employed to plot the cumulative drug release versus time. The diffusional behaviour of curcumin (2 mg/mL in isopropanol) was also determined using the same procedure, except the dialysate was replaced with isopropanol.

In the case of `COc1cc(/C=C/C(=O)CC(=O)/C=C/c2ccc(O)c(OC)c2)ccc1O` [free curcumin, curcumin], the curcumin released is recorded as more than 80%.

Values taken from patent US20190029970A1, “FATTY ACID CONJUGATED NANOPARTICLES AND USES THEREOF” (The Chinese University of Hong Kong, priority 2017, published 2019).
